Experimental data: patent US20060069132A1, “Azolecarboxamide herbicides” (priority 2004, published 2006)

What was measured:
wheat = test: Test B postemergence herbicide test; type: in vivo, Triticum aestivum; parameters: key to Wheat plant response rating: 0 = no effect, 100 = complete control; settings: postemergence, visual rating, scale 0 (no effect) to 100 (complete control)
Procedure, shortened: (§1)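 Greenhouse test; postemergence application to plants at 1–4 leaves (2–18 cm); paddy species at 2 leaves; evaluated visually vs controls at 13–15 days; scale 0–100 (100 = complete control).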

giant foxtail [1] = test: Test A pre-/postemergence herbicide test; type: in vivo, Setaria faberi
Procedure, shortened: (§2)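 Sandy loam soil given preemergence directed spray; plants at 2 to 10 cm, one- to two-leaf stage, sprayed to runoff postemergence, compounds in non-phytotoxic solvent with surfactant. Injury rated visually versus untreated controls after about ten greenhouse days, 0 (no effect) to 100 (complete control); dash means not tested.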

large crabgrass [2] = test: Test A pre-/postemergence herbicide test; type: in vivo, Digitaria sanguinalis
Procedure, shortened: as §2

corn = test: Test B pre-/postemergence herbicide test; type: in vivo, Zea mays; settings: for Plant response rating, Corn: preemergence; for Corn plant response rating: postemergence, visual rating, scale 0 (no effect) to 100 (complete control)
Procedure, shortened: (§3)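 Formulation: non-phytotoxic solvent mix with surfactant. Timing: preemergence on seed and postemergence on 2–18 cm plants, applied concurrently. Readout after 13–15 d greenhouse: visual 0–100 control rating against controls.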

rice [3] = test: Test B flooded paddy test; type: in vivo, Oryza sativa; settings: 1000 g ai/ha, visual rating, scale 0 to 100 (0 no effect, 100 complete control), 13 to 15 days
Procedure, shortened: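 Scale 0–100: zero equals no visible effect, 100 complete control, judged by eye relative to controls. Timing: 13 to 15 days in greenhouse post-treatment. Growth stage at spraying: two leaves (paddy) or one to four leaves, 2–18 cm (postemergence).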

Surinam grass = test: Test B pre-/postemergence herbicide test; type: in vivo, Urochloa decumbens; settings: for Plant response rating, Surinam Grass: preemergence; for Surinam Grass plant response rating: postemergence, visual rating, scale 0 (no effect) to 100 (complete control)
Procedure, shortened: as §3

[4] = system: small flower umbrella sedge; test: Test B flooded paddy test; type: in vivo, Cyperus difformis; settings: 1000 g ai/ha, visual rating, scale 0 to 100 (0 no effect, 100 complete control), 13 to 15 days
Procedure, shortened: (§4)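 Each value is a visual 0–100 response rating taken against controls 13 to 15 days after treatment in the greenhouse. Plants received formulated chemical postemergence at the 1- to 4-leaf stage or, in flooded paddy, at the 2-leaf stage.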

lambsquarters = test: Test B pre-/postemergence herbicide test; type: in vivo, Chenopodium album; settings: for Plant response rating, Lambsquarters: preemergence; for Lambsquarters plant response rating: postemergence, visual rating, scale 0 (no effect) to 100 (complete control)
Procedure, shortened: as §3

cocklebur = test: Test B pre-/postemergence herbicide test; type: in vivo, Xanthium strumarium; settings: for Plant response rating, Cocklebur: preemergence; for Cocklebur plant response rating: postemergence, visual rating, scale 0 (no effect) to 100 (complete control)
Procedure, shortened: (§5)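 Evaluation is visual, comparing treated with control plants on a scale where 0 means no effect and 100 means full control. Treatments were preemergence, or postemergence on seedlings 2–18 cm tall, and held 13–15 days in the greenhouse.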

rice [5] = test: Test B pre-/postemergence herbicide test; type: in vivo, Oryza sativa; settings: 500 g ai/ha; visual rating 0-100, 0 no effect, 100 complete control; preemergence
Procedure, shortened: as §3

wild oat = test: Test B postemergence herbicide test; type: in vivo, Avena fatua; settings: postemergence, visual rating, scale 0 (no effect) to 100 (complete control)
Procedure, shortened: as §1

ducksalad = test: Test B flooded paddy test; type: in vivo, Heteranthera limosa; settings: 1000 g ai/ha, visual rating, scale 0 to 100 (0 no effect, 100 complete control), 13 to 15 days
Procedure, shortened: as §4

velvetleaf [6] = test: Test B pre-/postemergence herbicide test; type: in vivo, Abutilon theophrasti; settings: for Plant response rating, Velvetleaf: preemergence; for Velvetleaf plant response rating: postemergence, visual rating, scale 0 (no effect) to 100 (complete control)
Procedure, shortened: as §3

velvetleaf [7] = test: Test A pre-/postemergence herbicide test; type: in vivo, Abutilon theophrasti
Procedure, shortened: as §2

blackgrass = test: Test B postemergence herbicide test; type: in vivo, Alopecurus myosuroides; settings: postemergence, visual rating, scale 0 (no effect) to 100 (complete control)
Procedure, shortened: as §4

barnyardgrass [8] = test: Test B flooded paddy test; type: in vivo, Echinochloa crus-galli; settings: 1000 g ai/ha, visual rating, scale 0 to 100 (0 no effect, 100 complete control), 13 to 15 days
Procedure, shortened: as §4

large crabgrass [9] = test: Test B pre-/postemergence herbicide test; type: in vivo, Digitaria sanguinalis; settings: for Plant response rating, Crabgrass, Large: preemergence; for Crabgrass, Large plant response rating: postemergence, visual rating, scale 0 (no effect) to 100 (complete control)
Procedure, shortened: as §3

barnyardgrass [10] = test: Test B pre-/postemergence herbicide test; type: in vivo, Echinochloa crus-galli; settings: for Plant response rating, Barnyardgrass: preemergence; for Barnyardgrass plant response rating: postemergence, visual rating, scale 0 (no effect) to 100 (complete control)
Procedure, shortened: as §5

pigweed = test: Test B pre-/postemergence herbicide test; type: in vivo, Amaranthus retroflexus; settings: for Plant response rating, Pigweed: preemergence; for Pigweed plant response rating: postemergence, visual rating, scale 0 (no effect) to 100 (complete control)
Procedure, shortened: as §3

redroot pigweed = test: Test A pre-/postemergence herbicide test; type: in vivo, Amaranthus retroflexus
Procedure, shortened: as §2

barnyardgrass [11] = test: Test A pre-/postemergence herbicide test; type: in vivo, Echinochloa crus-galli
Procedure, shortened: as §2

morningglory [12] = test: Test A pre-/postemergence herbicide test; type: in vivo, Ipomoea spp.
Procedure, shortened: as §2

giant foxtail [13] = test: Test B pre-/postemergence herbicide test; type: in vivo, Setaria faberi; settings: for Plant response rating, Foxtail, Giant: preemergence; for Foxtail, Giant plant response rating: postemergence, visual rating, scale 0 (no effect) to 100 (complete control)
Procedure, shortened: as §3

morningglory [14] = test: Test B pre-/postemergence herbicide test; type: in vivo, Ipomoea coccinea; settings: for Plant response rating, Morningglory: preemergence; for Morningglory plant response rating: postemergence, visual rating, scale 0 (no effect) to 100 (complete control)
Procedure, shortened: as §5

[15] = Postemergence, 250 g ai/ha, 0 to 100 scale, 0 no effect, 100 complete control
[16] = Postemergence, 1000 g ai/ha, 0 to 100 scale, 0 no effect, 100 complete control
[17] = Preemergence, 1000 g ai/ha, visual rating, 0 to 100 scale (0 no effect, 100 complete control)
[18] = preemergence, 250 g ai/ha, visual injury, 0 to 100 scale (0 no effect, 100 complete control)
[19] = 500 g ai/ha, visual rating 0-100, 0 no effect, 100 complete control
[20] = 125 g ai/ha, 0 to 100 scale, 0 is no effect, 100 is complete control

## CCn1nc(C(C)(C)C)cc1C(=O)Nc1cccc(S(C)(=O)=O)c1 [Compound 133]
wheat; 125 g ai/ha
  Wheat plant response rating: 0
wheat; 500 g ai/ha
  Wheat plant response rating: 0
Giant foxtail [1]; [15]
  Foxtail, Giant plant response rating: 10
Giant foxtail [1]; [16]
  Plant response rating, Foxtail, Giant: 20
Giant foxtail [1]; [17]
  Foxtail, Giant plant response rating: 30
Giant foxtail [1]; [18]
  Foxtail, Giant plant response rating: 0
Large crabgrass [2]; [15]
  Crabgrass, Large plant response rating: 10
Large crabgrass [2]; [16]
  Plant response rating, Crabgrass, Large: 20
Large crabgrass [2]; [17]
  Crabgrass, Large plant response rating: 80
Large crabgrass [2]; [18]
  Crabgrass, Large plant response rating: 25
corn; [19]
  Plant response rating, Corn: 0
corn; 125 g ai/ha
  Corn plant response rating: 10
corn; 500 g ai/ha
  Corn plant response rating: 20
corn; [20]
  Plant response rating, Corn: 0
Rice [3]
  Rice plant response rating: 0
Surinam grass; [19]
  Plant response rating, Surinam Grass: 20
Surinam grass; 125 g ai/ha
  Surinam Grass plant response rating: 0
Surinam grass; 500 g ai/ha
  Surinam Grass plant response rating: 50
Surinam grass; [20]
  Plant response rating, Surinam Grass: 0
[4]
  Sedge, Umbrella plant response rating: 40
lambsquarters; [19]
  Plant response rating, Lambsquarters: 100
lambsquarters; 125 g ai/ha
  Lambsquarters plant response rating: 60
lambsquarters; 500 g ai/ha
  Lambsquarters plant response rating: 70
lambsquarters; [20]
  Plant response rating, Lambsquarters: 50
cocklebur; [19]
  Plant response rating, Cocklebur: 0
cocklebur; 125 g ai/ha
  Cocklebur plant response rating: 10
cocklebur; 500 g ai/ha
  Cocklebur plant response rating: 60
cocklebur; [20]
  Plant response rating, Cocklebur: 0
Rice [5]
  Plant response rating, Rice: 40
Wild oat; 125 g ai/ha
  Oat, Wild plant response rating: 20
Wild oat; 500 g ai/ha
  Oat, Wild plant response rating: 20
ducksalad
  Ducksalad plant response rating: 50
Velvetleaf [6]; [19]
  Plant response rating, Velvetleaf: 70
Velvetleaf [6]; 125 g ai/ha
  Velvetleaf plant response rating: 10
Velvetleaf [6]; 500 g ai/ha
  Velvetleaf plant response rating: 50
Velvetleaf [6]; [20]
  Plant response rating, Velvetleaf: 20
Velvetleaf [7]; [15]
  Velvetleaf plant response rating: 10
Velvetleaf [7]; [16]
  Plant response rating, Velvetleaf: 15
Velvetleaf [7]; [17]
  Velvetleaf plant response rating: 35
Velvetleaf [7]; [18]
  Velvetleaf plant response rating: 5
blackgrass; 125 g ai/ha
  Blackgrass plant response rating: 0
blackgrass; 500 g ai/ha
  Blackgrass plant response rating: 10
Barnyardgrass [8]
  Barnyardgrass plant response rating: 20
Large crabgrass [9]; [19]
  Plant response rating, Crabgrass, Large: 80
Large crabgrass [9]; 125 g ai/ha
  Crabgrass, Large plant response rating: 10
Large crabgrass [9]; 500 g ai/ha
  Crabgrass, Large plant response rating: 30
Large crabgrass [9]; [20]
  Plant response rating, Crabgrass, Large: 20
Barnyardgrass [10]; [19]
  Plant response rating, Barnyardgrass: 60
Barnyardgrass [10]; 125 g ai/ha
  Barnyardgrass plant response rating: 0
Barnyardgrass [10]; 500 g ai/ha
  Barnyardgrass plant response rating: 40
Barnyardgrass [10]; [20]
  Plant response rating, Barnyardgrass: 10
pigweed; [19]
  Plant response rating, Pigweed: 100
pigweed; 125 g ai/ha
  Pigweed plant response rating: 20
pigweed; 500 g ai/ha
  Pigweed plant response rating: 50
pigweed; [20]
  Plant response rating, Pigweed: 100
Redroot pigweed; [15]
  Pigweed plant response rating: 30
Redroot pigweed; [16]
  Plant response rating, Pigweed: 75
Redroot pigweed; [17]
  Pigweed plant response rating: 65
Redroot pigweed; [18]
  Pigweed plant response rating: 10
Barnyardgrass [11]; [15]
  Barnyardgrass plant response rating: 20
Barnyardgrass [11]; [16]
  Plant response rating, Barnyardgrass: 55
Barnyardgrass [11]; [17]
  Barnyardgrass plant response rating: 45
Barnyardgrass [11]; [18]
  Barnyardgrass plant response rating: 0
Morningglory [12]; [15]
  Morningglory plant response rating: 10
Morningglory [12]; [16]
  Plant response rating, Morningglory: 20
Morningglory [12]; [17]
  Morningglory plant response rating: 0
Morningglory [12]; [18]
  Morningglory plant response rating: 0
Giant foxtail [13]; [19]
  Plant response rating, Foxtail, Giant: 40
Giant foxtail [13]; 125 g ai/ha
  Foxtail, Giant plant response rating: 0
Giant foxtail [13]; 500 g ai/ha
  Foxtail, Giant plant response rating: 20
Giant foxtail [13]; [20]
  Plant response rating, Foxtail, Giant: 0
Morningglory [14]; [19]
  Plant response rating, Morningglory: 10
Morningglory [14]; 125 g ai/ha
  Morningglory plant response rating: 10
Morningglory [14]; 500 g ai/ha
  Morningglory plant response rating: 20
Morningglory [14]; [20]
  Plant response rating, Morningglory: 10
